Laboratory results taken from patent US6706747B2, “Conformationally rigid bicyclic and adamantane derivatives useful as α2-adrenergic blocking agents” (Allergan, Inc., priority 1994, dated 2004).
Read-outs that look alike come from different tables or passages of the source.

Experiments:
α1 = assay: Radioligand binding, [3H]prazosin, human cerebral cortex (HCC) membranes; conditions: 22° C., 30 minutes
Description: Tissue preparation: Membrane suspensions were prepared from human cerebral cortex (HCC) obtained from the UCI Organ and Tissue Bank and rat kidney cortex (RKC). Briefly, tissues (1 g) were homogenized in 25 ml of iced-cold 5 mM tris, pH 7.4 with a Polytron homogenizer for 30 secs at setting# 7, and centrifuged for. 10-12 minutes at 300×g at 4° C. The supernatant was filtered: through 2 layers of gauze and diluted 1:2 with 50 mM Tris-HCI buffer, pH 7.4, then centrifuged at 49,000×g for 20 minutes. The pellet fraction was washed 3 times (resuspended in Tris-HCl buffer and centrifuged for 20 minutes at 49,000×g). The pellet was then stored at −80° C. until the binding assay.
(§1) Binding studies: The radioligands [^3H]rauwolscine (specific activity 80 Ci/mmol) and [^3H]prazosin (specific activity 76 Ci/mmol) were obtained from New England Nuclear, Boston, Mass. Frozen membrane pellet was resuspended in 25 mM glycine/glycine, pH 7.4 and incubated with radioligand under the following conditions: CHO—C10, CHO—RNG, HT-29-[^3H]rauwolscine, 22° C., 30 minutes; RKC-[^3H]rauwolscine, 0° C., 120 minutes; and, HCC-[^3H]prazosin, 22° C., 30 minutes in a final volume of 500 μl. At the end of the incubation period, the samples were filtered through glass fiber filters (Whatman GF/B) in a 96 well cell harvester and rapidly washed four times with 4 ml of ice-cold 50 mM, Tris-HCl buffer. The filters were then oven dried and transferred to scintillation vials containing 5 ml of Beckman's Ready Protein® scintillation cocktail for counting. […] Protein concentrations were determined with a protein assay kit from Bio Rad. Binding isotherms, equilibrium dissociation and affinity constants were analyzed and determined by the non-linear least squares curve fitting programs AccuFit Competition/Saturation by Beckman.
(§2) Frozen membrane pellet was resuspended either 50 mM tris, 2 mM EGTA, 1 mM MgCl2, pH7.5 (RbKC, RbICB-[^3H]brimonidine); 50 mM tris, 0.5 mM EDTA, 5 mM NaCl, pH 7.7 (RbICB-[^3H]rauwolscine); 25 mM glycine/glycine, pH 7.4 (RtKC, CHO—C10, CH—RNG, HT-29, HCC) or 50 mM tris, 0.1 mM MnCl2, pH7.7 (RtCC). Membrane protein homogenate (75-200 μg) was incubated with radioligand under the following conditions: RbKC and RbICB-[^3H]rauwolscine, 22° C., 45 minutes; RtCC and RbICB-[^3H]brimondine, 22° C., 90 minutes; CHO—C10, CHO—RNG and HT-29-[^3H]rauwolscine, 22° C., 30 minutes; HCC—[^3H]prazosin, 22° C., 30 minutes; and, in a final volume of 250 or 500 μl. At the end of the incubation period, the samples were filtered through glass fiber filters (Whatman GF/B) in a 24 or 96 well cell harvester and rapidly washed four times with 4 mls of iced-cold 50 mM Tris-HCl buffer. The filters were then oven dried and transferred to scintillation vials containing 10 mls of, Beckman's Ready Protein® scintillation cocktail for counting. […] Protein concentrations were determined with a protein assay kit from Bio Rad. Binding isotherms, equilibrium dissociation and affinity constants were analyzed and determined by the non-linear least squares curve fitting programs EBDA (BioSoft) or AccuFit Competition/Saturation by Beckman.
The radioligands [^3H]rauwolscine (specific activity 80 Ci/mmol) and [^3H]prazosin (specific activity 76 Ci/mmol) were obtained from New England Nuclear, Boston, Mass. Frozen membrane pellet was resuspended in 25 mM glycine/glycine, pH 7.4 and incubated with radioligand under the following conditions: CHO—C10, CHO—RNG-[^3H]rauwolscine, 22° C., 30 minutes; and, HCC—[^3H]prazosin, 22° C., 30 minutes in a final volume of 500 ul.

[1] = target: T1, human α2A (CHO-C10) receptor (Homo sapiens, UniProt P08913); assay: Radioligand binding, [3H]rauwolscine, CHO-C10 cell membranes; conditions: CHO-C10, 22° C., 30 minutes
T1 construct: expressed in transfected cells; host or cells: CHO (CHO-C10)
T1 sequence (P08913 1-465): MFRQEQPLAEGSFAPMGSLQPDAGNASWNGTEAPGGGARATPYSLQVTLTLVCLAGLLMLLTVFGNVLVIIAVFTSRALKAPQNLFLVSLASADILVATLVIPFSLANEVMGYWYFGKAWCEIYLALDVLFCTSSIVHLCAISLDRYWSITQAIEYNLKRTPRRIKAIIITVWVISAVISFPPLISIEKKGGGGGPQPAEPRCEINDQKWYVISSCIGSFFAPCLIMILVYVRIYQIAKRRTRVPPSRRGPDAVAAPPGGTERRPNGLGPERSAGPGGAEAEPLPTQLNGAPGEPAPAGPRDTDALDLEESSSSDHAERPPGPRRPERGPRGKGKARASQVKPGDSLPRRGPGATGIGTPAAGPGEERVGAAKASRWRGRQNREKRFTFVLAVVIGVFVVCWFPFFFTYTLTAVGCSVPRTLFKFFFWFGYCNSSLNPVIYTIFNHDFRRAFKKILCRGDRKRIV
Description: (§3) Cell preparation: HT-29 and chinese hamster ovary (CHO) cells expressing the human α2A (CHO—C10) receptor and CHO cells (CHO—RNG) expressing the rat α2B adrenoceptor were grown to near confluency in Dulbecco's modified Eagle's medium supplemented with 10% fetal bovine serum using standard cell culture methods. Cells were harvested by scraping and placed into cold buffer of the following composition: 50 mM Tris-HCl, 5 mM EDTA, pH 7.4). Cells were then homogenized with a Polytron homogenizer for 2×10 secs at setting # 7, arid centrifuged for 20 minutes at 49,000×g. The pellet fraction was washed (resuspended in Tris-HCl, pH 8 buffer and centrifuged for 15-20 minutes at 49,000×g) 2 times and stored at −100° C. until binding assay.
as §1, §2
(§4) Cell preparation: Chinese hamster ovary (CHO) cells expressing the human α2A (CHO—C10) and the rat α2B (CHO—RNG) adrenoceptors were grown to near confluency in Dulbecco's modified Eagle's medium supplemented with 10% fetal bovine serum using standard cell culture methods. Cells were harvested by scraping and placed into cold buffer of the following composition: 50 mM Tris-HCl, 5 mM EDTA, pH 7.4). Cells were then homogenized with a Polytron homogenizer for 2×10 secs at setting #7, and centrifuged for 20 minutes at 49,000×g.

[2] = target: T2, rat α2B adrenoceptor (CHO-RNG) (Rattus norvegicus, UniProt P19328); assay: Radioligand binding, [3H]rauwolscine, CHO-RNG cell membranes; conditions: 22° C., 30 minutes
T2 construct: expressed in transfected cells; host or cells: CHO (CHO-RNG)
T2 sequence (P19328 1-453): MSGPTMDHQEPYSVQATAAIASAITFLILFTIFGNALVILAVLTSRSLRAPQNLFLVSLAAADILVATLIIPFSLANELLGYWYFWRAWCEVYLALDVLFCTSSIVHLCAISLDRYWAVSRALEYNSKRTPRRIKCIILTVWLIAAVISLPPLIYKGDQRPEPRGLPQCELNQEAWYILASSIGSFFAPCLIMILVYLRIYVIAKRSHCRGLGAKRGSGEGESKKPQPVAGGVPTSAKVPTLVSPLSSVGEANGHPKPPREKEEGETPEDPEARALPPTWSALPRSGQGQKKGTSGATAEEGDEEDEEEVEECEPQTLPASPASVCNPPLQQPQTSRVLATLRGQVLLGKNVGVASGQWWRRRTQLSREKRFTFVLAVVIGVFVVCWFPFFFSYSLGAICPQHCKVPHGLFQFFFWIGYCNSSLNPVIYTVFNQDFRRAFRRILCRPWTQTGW
Description: as §3, §1, §2, §4

[3] = read-out: Ki (nM) α2A (CHO-C10)
[4] = read-out: Ki (nM) α2B (CHO-RNG)

Structure (SMILES) | Ki (α1) | Ki [1, 3] | Ki [2, 4] | Ki ([1]; Ki (nM) α2A (CHO-C10)) | Ki ([2]; Ki (nM) α2B (CHO-RNG))
CCC1C2CCC(C2)C1NC1=NCCO1 (centres unmarked) | 24800 nM | 59 nM | 616 nM |  | 
c1ccc(C2C3CCC(C3)C2NC2=NCCO2)cc1 (centres unmarked) [drawing 10] | 73 nM | 1.9 nM | 27 nM |  | 
CCCC1CCCCC1NC1=NCCO1 (centres unmarked) | 1600 nM | 0.6 nM | 8.3 nM |  | 
CCC1C2CCC(C2)C1N (centres unmarked) | > 100000 nM | 67200 nM | 57100 nM |  | 
c1ccc(CCNC2=NCCO2)cc1 | 11100 nM | 1750 nM | 4170 nM |  | 
C1COC(NC2CC3CCC2C3)=N1 (centres unmarked) | > 10000 nM | 4.2 nM | 11.5 nM |  | 
CCCC1C2CCC(C2)C1NC1=NCCO1 (centres unmarked) [drawing 17] | 8600 nM | 25 nM | 256 nM |  | 
CC(C)C1C2CCC(C2)C1N (centres unmarked) | > 100000 nM | 23300 nM | 20900 nM |  | 
c1ccc(C2C3CCC(C3)C2NC2=NCCN2)cc1 (centres unmarked) |  |  |  | 14.3 nM | 72 nM
C1COC(NC23CC4CC(CC(C4)C2)C3)=N1 [drawing 26] | > 10000 nM | 102 nM | 358 nM |  | 
c1ccc(C2C3CCC(C3)C2NC2=NCCO2)cc1 (centres unmarked) [drawing 7] | 1860 nM | 3.1 nM | 7.8 nM |  | 
C1COC(NC2CC3CCC2CC3)=N1 (centres unmarked) | 32500 nM | 119 nM | 770 nM |  | 
CC1(C)C2CCC1(C)C(NC1=NCCO1)C2 (centres unmarked) | > 10000 nM | 368 nM | 1930 nM |  | 
NC1C2CCC(C2)C1c1ccccc1 (centres unmarked) | 11000 nM | 6570 nM | 6100 nM |  | 
CCCC1C2CCC(C2)C1NC1=NCCO1 (centres unmarked) [drawing 18] | 8850 nM | 9.8 nM | 28.1 nM |  | 
c1cc2c(cc1C1C3CCC(C3)C1NC1=NCCO1)OCO2 (centres unmarked) | 1860 nM | 1.1 nM | 4.6 nM |  | 
C1COC(NC23CC4CC(CC(C4)C2)C3)=N1 [drawing 27] | 35000 nM | 352 nM | 1840 nM |  | 
